For experiment [1], the target named is T1, Recombinant Human 5′-Nucleotidase (CD73) (Homo sapiens, UniProt P21589).
T1 construct: CHO derived CD73 (Trp27-Lys547), with a C-terminal 6-His tag; 6-His (C); purchased R&D 5795-EN; host or cells: CHO
T1 sequence (P21589 27-547): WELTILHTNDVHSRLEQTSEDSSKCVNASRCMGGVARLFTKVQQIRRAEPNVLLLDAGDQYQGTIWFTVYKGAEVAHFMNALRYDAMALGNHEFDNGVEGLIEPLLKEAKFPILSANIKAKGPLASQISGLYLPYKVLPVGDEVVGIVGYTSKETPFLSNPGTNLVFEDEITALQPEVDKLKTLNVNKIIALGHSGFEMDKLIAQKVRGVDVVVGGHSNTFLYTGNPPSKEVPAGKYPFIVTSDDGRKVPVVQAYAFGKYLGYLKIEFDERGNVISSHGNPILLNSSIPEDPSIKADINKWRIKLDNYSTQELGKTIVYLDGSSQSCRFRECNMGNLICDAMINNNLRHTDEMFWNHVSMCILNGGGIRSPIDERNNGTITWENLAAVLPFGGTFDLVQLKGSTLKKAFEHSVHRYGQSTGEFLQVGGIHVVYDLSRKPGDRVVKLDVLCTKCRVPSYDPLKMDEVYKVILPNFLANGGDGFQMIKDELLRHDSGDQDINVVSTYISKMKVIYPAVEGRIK
Kind of experiment: CD73 Enzyme Assay. Format: biochemical. The conditions noted are these: human CD73 0.5 nM, AMP 30 μM, PiColorLock phosphate detection; read-out: Potency (IC50, CD73 enzyme assay). In a few lines: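 Human CD73 (CHO-derived Trp27-Lys547, His-tagged; 0.5 nM final) was preincubated with compound for 15 min at 25° C. in Tris pH 7.5 buffer with MgCl2. It then reacted with 30 μM AMP for 20 min at 37° C., and released phosphate was read by malachite green absorbance at 635 nm. IC50 came from four-parameter fits against enzyme and no-enzyme controls.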

Experiment [2] deals with T2, Cell surface CD73 of U87 MG human glioblastoma cells (Homo sapiens, UniProt P21589).
T2 construct: Cell surface CD73 catalyzes the conversion of adenosine monophosphate (AMP) to adenosine and inorganic phosphate; endogenous in cells; host or cells: U87 MG human glioblastoma cells
T2 sequence (P21589 27-549): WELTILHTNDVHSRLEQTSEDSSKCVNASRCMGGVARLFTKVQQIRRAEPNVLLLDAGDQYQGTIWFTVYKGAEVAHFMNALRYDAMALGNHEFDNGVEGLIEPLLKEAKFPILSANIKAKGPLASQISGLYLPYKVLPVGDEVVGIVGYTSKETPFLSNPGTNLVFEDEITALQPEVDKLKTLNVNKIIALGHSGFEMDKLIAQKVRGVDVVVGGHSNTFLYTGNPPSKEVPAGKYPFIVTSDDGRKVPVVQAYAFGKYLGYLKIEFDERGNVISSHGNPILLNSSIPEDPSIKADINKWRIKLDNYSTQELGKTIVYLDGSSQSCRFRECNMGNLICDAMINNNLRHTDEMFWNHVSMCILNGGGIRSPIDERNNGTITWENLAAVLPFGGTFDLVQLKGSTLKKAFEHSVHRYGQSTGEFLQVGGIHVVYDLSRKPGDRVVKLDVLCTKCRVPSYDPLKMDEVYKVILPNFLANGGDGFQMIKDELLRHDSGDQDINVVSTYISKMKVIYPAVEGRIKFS
Kind of experiment: CD73 Cellular Assay. Format: cell-based. As to conditions: 5000 cells per well, 30 μM AMP substrate, read-out: Potency (IC50, CD73 cellular assay). In a few lines: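 U87 MG cells (5000/well) preincubated with compound 30 min at 37 °C, 5% CO2, in HEPES-buffered saline pH 7.4 with 0.5% DMSO, then 30 μM AMP (final) for 50 min. Released phosphate in supernatant read colorimetrically at 635 nm; IC50 from four-parameter logistic fit versus cells-plus-substrate and cells-only controls.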

Experiment [3] concerns CT-26 murine colon carcinoma. Kind of experiment: subcutaneous CT-26 murine colon carcinoma syngeneic model, combination therapy. As to conditions: combination with anti-mPDI antibody 10 mg/kg i.p. twice weekly, 4 doses; compound 10 mg/kg iv once a day from day 6 post implant; CT-26 in BALB/c female mice. Format: in vivo. How it is done:
Some compounds were evaluated preclinically for in vivo therapeutic efficacy as single agents or in combination with other agents. Compounds of the invention show potent anti-tumor effects when dosed in combination with, for example, an anti-mPDI antibody as evidenced by reducing tumor volume in a subcutaneous CT-26 murine colon carcinoma syngeneic model in BALB/c female mice. CT-26 tumor cells were implanted subcutaneously into BALB/c female mice for each experiment. Anti-mPDl antibody (10 mg/kg) was dosed i.p. starting on study day 6 post implant twice weekly for a total of 4 doses. Compound No. 65 (10 mg/kg) or vehicle was administered iv once a day starting on day 6 post implant.

Structures are written as SMILES. pIC50: −log10 of the molar value.

One may read the pIC50 as the IC50 on a negative log10 scale, so that one unit is a factor of ten. For the compound `O=P(O)(O)CP(=O)(O)OC[C@H]1O[C@@H](c2cnc3c(N4CCC[C@H]4c4ccccc4)nc(Cl)nn23)[C@H](O)[C@@H]1O` [Compound 64, (((((2R,3S,4R,1S)-5-(2-chloro-4-((S)-2-phenylpyrrolidin-1-yl)imidazo[2,1-f][1,2,4]triazin-7-yl)-3,4-dihydroxytetrahydrofuran-2-yl)methoxy)(hydroxy)phosphoryl)methyl)phosphonic Acid], the values for the negative logarithm of the IC50 (pIC50) in experiment [1] and in experiment [2] were more than 8.00 and more than 9.00, respectively.
In the case of `O=P(O)(O)CP(=O)(O)OC[C@H]1O[C@@H](c2cnc3c(N4CCCC4)nc(Cl)nn23)[C@H](O)[C@@H]1O` [Compound 65, [({[(2R,3S,4R,5S)-5-[2-chloro-4-(pyrrolidin-1-yl)imidazo[2,1-f][1,2,4]triazin-7-yl]-3,4-dihydroxyoxolan-2-yl]methoxy}(hydroxy)phosphoryl)methyl]phosphonic Acid], in experiment [3], the tumor volume entry is recorded as “reduction in tumor volume”. Moreover, the negative logarithm of the IC50 (pIC50) in experiment [1] was more than 8.00; in experiment [2], more than 9.00.
For `NC(=O)c1nc(NC2CCCC2)c2ncc([C@@H]3O[C@H](COP(=O)(O)CP(=O)(O)O)[C@@H](O)[C@H]3O)n2n1` [Compound 66, (((((2R,3S,4R,5S)-5-(2-carbamoyl-4-(cyclopentylamino)imidazo[2,1-f][1,2,4]triazin-7-yl)-3,4-dihydroxytetrahydrofuran-2-yl)methoxy)(hydroxy)phosphoryl)methyl)phosphonic Acid], the negative-log IC50 (pIC50) in experiment [1] is more than 8.00; in experiment [2], more than 9.00.
For `O=P(O)(O)CP(=O)(O)OC[C@H]1O[C@@H](c2cnc3c(N4CC5CCCC5C4)nc(Cl)nn23)[C@@H](F)[C@@H]1O` (stereo partly drawn) [Compound 72, (((((2R,3R,4S,5S)-5-(2-chloro-4-(hexahydrocyclopenta[c]pyrrol-2(1H)-yl)imidazo[2,1-f][1,2,4]triazin-7-yl)-4-fluoro-3-hydroxytetrahydrofuran-2-yl)methoxy)(hydroxy)phosphoryl)methyl) phosphonic Acid] the same measures were more than 8.00 and 8.00 to 9.00.
For `O=P(O)(O)CP(=O)(O)OC[C@H]1OC(c2cnc3c(N4CCCC4)nc(Cl)nn23)[C@@H](F)[C@@H]1O` (stereo partly drawn) [Compound 73, (((((2R,3R,4S)-5-(2-chloro-4-(pyrrolidin-1-yl)imidazo[2,1-f][1,2,4]triazin-7-yl)-4-fluoro-3-hydroxytetrahydrofuran-2-yl)methoxy)(hydroxy)phosphoryl)methyl)phosphonic Acid] the same measures were 7.00 to 8.00 and 8.00 to 9.00.
The matching figures for `C[C@H](Nc1nc(Cl)nn2c(C3O[C@H](COP(=O)(O)CP(=O)(O)O)[C@@H](O)[C@@H]3F)cnc12)c1ccccc1F` (stereo partly drawn) [Compound 74, (((((2R,3R,4S)-5-(2-chloro-4-(((S)-1-(2-fluorophenyl)ethyl)amino)imidazo[2,1-f][1,2,4]triazin-7-yl)-4-fluoro-3-hydroxytetrahydrofuran-2-yl)methoxy)(hydroxy)phosphoryl)methyl)phosphonic Acid]: 7.00 to 8.00 and 7.00 to 8.00.
As for `O=P(O)(O)CP(=O)(O)OC[C@H]1O[C@@H](c2cnc3c(N4CCC(F)(F)C4)nc(Cl)nn23)[C@@H](F)[C@@H]1O` [Compound 75, (((((2R,3R,4S,5S)-5-(2-chloro-4-(3,3-difluoropyrrolidin-1-yl)imidazo[2,1-f][1,2,4]triazin-7-yl)-4-fluoro-3-hydroxytetrahydrofuran-2-yl)methoxy)(hydroxy)phosphoryl)methyl)phosphonic Acid], the negative logarithm of the IC50 (pIC50) was 7.00 to 8.00 in experiment [1] and 8.00 to 9.00 in experiment [2].

Values taken from patent US20220204539A1, “CD73 INHIBITORS” (BioArdis LLC, priority 2019, published 2022).
